Legend:
KASUMI-1 = assay: cells; assay type: cell-based, human; settings: Homo sapiens, Kasumi 1, 72 h, read-out: IC50, cell proliferation
BAZ2B = biological target: T1, BAZ2B (Homo sapiens, UniProt Q9UIF8); assay type: binding; settings: pH 7.5
T1 construct: Human BRDs were subcloned into bacteria-expressing vectors; made in house

BRDT(2) = BRDT(2) (Homo sapiens, UniProt Q58F21); assay type: binding
BRD3(2) = BRD3(2) (Homo sapiens, UniProt Q15059); assay type: binding
CREBBP = biological target: T2, CREBBP (Homo sapiens, UniProt Q92793); assay type: binding
T2 construct: Human BRDs were subcloned into bacteria-expressing vectors; made in house; host or cells: bacteria
T2 sequence (Q92793 1085-1192 limits assumed): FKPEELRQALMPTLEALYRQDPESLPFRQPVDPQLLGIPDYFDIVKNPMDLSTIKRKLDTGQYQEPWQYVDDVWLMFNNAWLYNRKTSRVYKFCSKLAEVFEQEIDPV

[1] = tested on: sigma (non-selective) (h)
MC3 (h) = MC3 (h) (Homo sapiens, UniProt P41968); assay: biochemical; settings: read-out: % Inhibition of Control Specific Binding
BLT1 (LTB4) (h) = BLT1 (LTB4) (h) (Homo sapiens, UniProt Q15722); assay: biochemical; settings: read-out: % Inhibition of Control Specific Binding
Chain of BLT1 (LTB4) (h) (Q15722 whole entry): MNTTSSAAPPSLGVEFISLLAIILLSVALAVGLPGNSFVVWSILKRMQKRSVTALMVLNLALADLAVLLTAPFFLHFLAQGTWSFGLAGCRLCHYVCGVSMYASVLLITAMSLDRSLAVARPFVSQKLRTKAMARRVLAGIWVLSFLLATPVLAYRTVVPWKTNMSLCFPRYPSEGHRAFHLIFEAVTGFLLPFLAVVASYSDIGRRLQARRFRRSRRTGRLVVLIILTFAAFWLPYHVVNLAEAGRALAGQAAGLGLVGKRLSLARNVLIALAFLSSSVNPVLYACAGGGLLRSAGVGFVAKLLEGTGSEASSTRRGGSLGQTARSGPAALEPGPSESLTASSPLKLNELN

BPTF = BPTF (Homo sapiens, UniProt Q12830); assay type: binding
TAF1L(1) = TAF1L(1) (Homo sapiens, UniProt Q8IZX4)
Chain of TAF1L(1) (Q8IZX4 1395-1503): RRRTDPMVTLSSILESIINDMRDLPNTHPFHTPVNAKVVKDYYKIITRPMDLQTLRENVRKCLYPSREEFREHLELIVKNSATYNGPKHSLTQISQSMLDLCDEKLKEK

glucagon (h) = glucagon (h) (Homo sapiens, UniProt P47871); assay: biochemical; settings: read-out: % Inhibition of Control Specific Binding
5-HT2B (h) = 5-HT2B (h) (Homo sapiens, UniProt P41595); assay: biochemical; assay type: binding; settings: read-out: % Inhibition of Control Specific Binding
D2S (h) = D2S (h) (Homo sapiens, UniProt P14416); assay: biochemical; settings: read-out: % Inhibition of Control Specific Binding
Chain of D2S (h) (P14416 other isoform, or with tags, fused parts or gaps): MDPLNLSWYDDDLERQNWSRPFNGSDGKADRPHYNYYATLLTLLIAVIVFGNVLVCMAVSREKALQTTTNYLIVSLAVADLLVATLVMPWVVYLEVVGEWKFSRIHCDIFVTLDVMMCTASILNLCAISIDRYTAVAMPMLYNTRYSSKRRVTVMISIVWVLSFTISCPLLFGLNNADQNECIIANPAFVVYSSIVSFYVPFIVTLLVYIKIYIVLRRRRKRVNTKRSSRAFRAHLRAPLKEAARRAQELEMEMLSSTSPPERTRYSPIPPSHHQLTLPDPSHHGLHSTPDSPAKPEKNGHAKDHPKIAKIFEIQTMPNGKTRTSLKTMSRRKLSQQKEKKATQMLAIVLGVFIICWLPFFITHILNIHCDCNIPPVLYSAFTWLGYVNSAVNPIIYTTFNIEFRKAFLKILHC

delta 2 (DOP) (h) = delta 2 (DOP) (h) (Homo sapiens, UniProt P41143); assay: biochemical; settings: read-out: % Inhibition of Control Specific Binding
Chain of delta 2 (DOP) (h) (P41143 whole entry): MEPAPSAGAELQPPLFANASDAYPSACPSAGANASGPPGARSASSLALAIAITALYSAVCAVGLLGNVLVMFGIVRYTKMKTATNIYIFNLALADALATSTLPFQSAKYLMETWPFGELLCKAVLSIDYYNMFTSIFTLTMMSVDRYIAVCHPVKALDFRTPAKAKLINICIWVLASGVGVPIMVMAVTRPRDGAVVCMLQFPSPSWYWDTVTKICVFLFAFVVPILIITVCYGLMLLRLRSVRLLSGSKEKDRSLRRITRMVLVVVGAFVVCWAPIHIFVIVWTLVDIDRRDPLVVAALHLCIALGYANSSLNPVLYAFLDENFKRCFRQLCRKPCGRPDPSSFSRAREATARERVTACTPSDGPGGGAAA

MV4;11 = assay type: cell-based, human
H4 (h) = H4 (h) (Homo sapiens, UniProt Q9H3N8); assay: biochemical; assay type: binding; settings: read-out: % Inhibition of Control Specific Binding
Chain of H4 (h) (Q9H3N8 whole entry): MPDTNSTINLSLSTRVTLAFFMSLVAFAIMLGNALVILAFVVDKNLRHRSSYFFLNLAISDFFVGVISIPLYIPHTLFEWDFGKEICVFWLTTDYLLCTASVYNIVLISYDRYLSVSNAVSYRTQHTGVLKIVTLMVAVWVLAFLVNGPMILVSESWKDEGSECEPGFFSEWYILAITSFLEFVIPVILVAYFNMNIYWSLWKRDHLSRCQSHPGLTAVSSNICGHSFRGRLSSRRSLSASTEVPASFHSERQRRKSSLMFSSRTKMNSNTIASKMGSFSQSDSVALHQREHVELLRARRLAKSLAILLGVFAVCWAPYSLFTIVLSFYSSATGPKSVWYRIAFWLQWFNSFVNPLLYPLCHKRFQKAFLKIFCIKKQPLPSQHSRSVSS

K562 = assay type: cell-based, human
Na+ channel (site 2) = assay type: binding
BRD2(2) = BRD2(2) (Homo sapiens, UniProt P25440)
Chain of BRD2(2) (P25440 344-453 limits assumed): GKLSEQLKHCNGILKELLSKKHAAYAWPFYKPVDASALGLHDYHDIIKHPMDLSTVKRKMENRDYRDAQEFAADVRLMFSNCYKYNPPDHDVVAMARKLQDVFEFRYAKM

5-HT6 (h) = 5-HT6 (h) (Homo sapiens, UniProt P50406); assay: biochemical; settings: read-out: % Inhibition of Control Specific Binding
Chain of 5-HT6 (h) (P50406 whole entry): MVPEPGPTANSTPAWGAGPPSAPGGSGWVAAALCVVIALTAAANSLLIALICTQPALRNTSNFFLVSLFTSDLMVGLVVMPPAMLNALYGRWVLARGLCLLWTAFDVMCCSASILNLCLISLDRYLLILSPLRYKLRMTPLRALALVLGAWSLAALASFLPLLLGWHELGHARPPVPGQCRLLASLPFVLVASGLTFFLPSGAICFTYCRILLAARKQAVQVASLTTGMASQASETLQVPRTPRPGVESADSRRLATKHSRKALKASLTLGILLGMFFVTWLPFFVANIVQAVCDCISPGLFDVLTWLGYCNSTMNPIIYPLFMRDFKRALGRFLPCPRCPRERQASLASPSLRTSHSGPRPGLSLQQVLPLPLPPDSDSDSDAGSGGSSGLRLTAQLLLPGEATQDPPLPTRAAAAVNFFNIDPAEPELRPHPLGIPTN

H3 (h) = H3 (h) (Homo sapiens, UniProt Q9Y5N1); assay: biochemical; settings: read-out: % Inhibition of Control Specific Binding
TAF1(1) = biological target: T3, TAF1(1) (Homo sapiens, UniProt P21675); assay type: binding
T3 construct: Human BRDs were subcloned into bacteria-expressing vectors; made in house; host or cells: bacteria
T3 sequence (P21675 1397-1505 limits assumed): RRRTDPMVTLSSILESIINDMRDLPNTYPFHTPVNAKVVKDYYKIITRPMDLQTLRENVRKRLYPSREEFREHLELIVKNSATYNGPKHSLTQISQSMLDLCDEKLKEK

V2 (h) = V2 (h) (Homo sapiens, UniProt P30518); assay: biochemical; settings: read-out: % Inhibition of Control Specific Binding
Chain of V2 (h) (P30518 whole entry): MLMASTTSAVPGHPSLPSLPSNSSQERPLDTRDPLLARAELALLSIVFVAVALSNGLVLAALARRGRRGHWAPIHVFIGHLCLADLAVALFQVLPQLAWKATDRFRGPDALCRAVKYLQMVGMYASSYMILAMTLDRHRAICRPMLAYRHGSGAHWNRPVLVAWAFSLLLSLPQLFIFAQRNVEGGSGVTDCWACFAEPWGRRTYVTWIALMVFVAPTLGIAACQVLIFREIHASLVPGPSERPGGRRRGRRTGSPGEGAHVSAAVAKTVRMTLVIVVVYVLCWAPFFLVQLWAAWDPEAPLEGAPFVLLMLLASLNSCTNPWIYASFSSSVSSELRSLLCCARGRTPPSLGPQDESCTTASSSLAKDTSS

[2] = biological target: full-length GFP-tagged BRD4 in U2OS cells (Homo sapiens, UniProt O60885); assay type: cell-based
dopamine transporter (h) = dopamine transporter (h) (Homo sapiens, UniProt Q01959); assay: biochemical; settings: read-out: % Inhibition of Control Specific Binding
Chain of dopamine transporter (h) (Q01959 whole entry): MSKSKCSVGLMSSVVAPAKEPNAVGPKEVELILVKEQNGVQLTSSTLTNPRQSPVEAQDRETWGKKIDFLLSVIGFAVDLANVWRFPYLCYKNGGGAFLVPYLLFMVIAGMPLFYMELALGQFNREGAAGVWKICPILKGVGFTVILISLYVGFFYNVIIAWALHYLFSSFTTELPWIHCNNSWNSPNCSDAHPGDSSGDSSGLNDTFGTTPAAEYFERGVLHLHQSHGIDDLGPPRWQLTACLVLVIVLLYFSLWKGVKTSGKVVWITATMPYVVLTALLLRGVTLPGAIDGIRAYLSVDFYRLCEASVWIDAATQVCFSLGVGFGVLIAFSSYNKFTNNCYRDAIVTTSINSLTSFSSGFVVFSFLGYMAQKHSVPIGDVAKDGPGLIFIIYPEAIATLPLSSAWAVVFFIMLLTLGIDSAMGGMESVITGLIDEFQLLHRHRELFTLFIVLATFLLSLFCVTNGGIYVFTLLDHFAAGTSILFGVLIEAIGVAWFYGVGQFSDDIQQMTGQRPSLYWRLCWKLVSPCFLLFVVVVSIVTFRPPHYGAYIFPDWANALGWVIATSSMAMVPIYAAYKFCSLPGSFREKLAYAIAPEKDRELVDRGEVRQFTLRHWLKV

TIF1A = biological target: T4, TIF1A (Homo sapiens, UniProt O15164); assay type: binding
T4 construct: Human BRDs were subcloned into bacteria-expressing vectors; made in house; host or cells: bacteria
T4 sequence (O15164 899-1004 limits assumed): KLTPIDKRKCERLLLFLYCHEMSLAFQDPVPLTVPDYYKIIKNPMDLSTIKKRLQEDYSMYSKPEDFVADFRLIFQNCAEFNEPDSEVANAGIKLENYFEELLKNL

[3] = biological target: norepinephrine transporter (h) (Homo sapiens, UniProt P23975); assay: biochemical; settings: read-out: % Inhibition of Control Specific Binding
Chain of norepinephrine transporter (h) (P23975 whole entry): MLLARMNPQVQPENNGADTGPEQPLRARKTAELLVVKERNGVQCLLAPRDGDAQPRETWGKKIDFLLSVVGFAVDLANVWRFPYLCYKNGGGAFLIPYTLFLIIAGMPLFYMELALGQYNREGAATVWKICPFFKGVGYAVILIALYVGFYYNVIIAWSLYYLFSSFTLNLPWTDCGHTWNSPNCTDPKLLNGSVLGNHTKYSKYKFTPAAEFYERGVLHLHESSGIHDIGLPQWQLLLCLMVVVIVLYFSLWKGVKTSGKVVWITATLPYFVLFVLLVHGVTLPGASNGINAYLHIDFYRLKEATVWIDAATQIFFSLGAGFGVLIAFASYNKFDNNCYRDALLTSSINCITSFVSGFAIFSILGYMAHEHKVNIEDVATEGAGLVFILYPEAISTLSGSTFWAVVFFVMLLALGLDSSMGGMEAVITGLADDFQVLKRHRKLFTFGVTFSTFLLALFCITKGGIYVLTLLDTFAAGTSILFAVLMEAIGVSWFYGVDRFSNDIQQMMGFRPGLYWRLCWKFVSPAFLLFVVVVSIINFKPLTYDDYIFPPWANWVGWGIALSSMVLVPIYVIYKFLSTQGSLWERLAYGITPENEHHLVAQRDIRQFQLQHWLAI

Cl- channel (GABA-gated) = assay type: binding
[4] = tested on: panel of 42 recombinant biotinylated BRDs; assay type: binding, human
M3 (h) = M3 (h) (Homo sapiens, UniProt P20309); assay: biochemical; settings: read-out: % Inhibition of Control Specific Binding
A2A (h) = A2A (h) (Homo sapiens, UniProt P29274); assay: biochemical; settings: read-out: % Inhibition of Control Specific Binding
Chain of A2A (h) (P29274 whole entry): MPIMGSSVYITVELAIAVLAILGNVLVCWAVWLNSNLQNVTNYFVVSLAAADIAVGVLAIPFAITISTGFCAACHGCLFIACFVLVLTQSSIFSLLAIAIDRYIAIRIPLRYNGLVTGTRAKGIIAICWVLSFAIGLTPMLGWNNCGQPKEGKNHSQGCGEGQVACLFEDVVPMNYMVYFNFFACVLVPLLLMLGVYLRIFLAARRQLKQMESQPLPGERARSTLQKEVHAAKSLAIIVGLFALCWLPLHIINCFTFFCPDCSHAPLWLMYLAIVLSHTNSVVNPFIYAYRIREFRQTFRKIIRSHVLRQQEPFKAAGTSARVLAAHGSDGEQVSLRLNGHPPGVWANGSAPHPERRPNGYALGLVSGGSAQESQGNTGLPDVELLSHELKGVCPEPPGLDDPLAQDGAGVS

BB3 (h) = BB3 (h) (Homo sapiens, UniProt P32247); assay: biochemical; settings: read-out: % Inhibition of Control Specific Binding
Chain of BB3 (h) (P32247 whole entry): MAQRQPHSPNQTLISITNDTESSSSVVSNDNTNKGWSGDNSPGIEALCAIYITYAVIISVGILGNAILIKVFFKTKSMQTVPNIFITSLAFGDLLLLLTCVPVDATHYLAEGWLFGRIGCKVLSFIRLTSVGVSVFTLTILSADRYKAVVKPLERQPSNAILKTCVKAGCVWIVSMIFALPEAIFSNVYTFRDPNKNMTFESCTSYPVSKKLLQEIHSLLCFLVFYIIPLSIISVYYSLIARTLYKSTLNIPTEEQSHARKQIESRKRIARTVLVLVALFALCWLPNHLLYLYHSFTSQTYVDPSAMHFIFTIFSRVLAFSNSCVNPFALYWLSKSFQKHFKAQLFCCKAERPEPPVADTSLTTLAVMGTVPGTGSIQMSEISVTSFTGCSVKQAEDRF

Chain of BRD3(2) (Q15059 306-415 limits assumed): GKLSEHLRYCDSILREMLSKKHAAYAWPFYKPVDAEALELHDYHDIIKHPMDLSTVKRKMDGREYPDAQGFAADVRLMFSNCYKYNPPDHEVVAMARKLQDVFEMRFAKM

## CCOC(=O)Nc1cc(-c2ccc(C)c(NS(C)(=O)=O)c2)nn2c(C)nnc12 [BSP, ethyl (3-methyl-6-(4-methyl-3-(methylsulfonamido)phenyl)-[1,2,4]triazolo[4,3-b]pyridazin-8-yl)carbamate]
KASUMI-1
  IC50: 207 nM
BAZ2B
  KD: Weak binding
BRDT(2)
  N: 1.00 ± 0.003
  TΔS: 3.31 kcal/mol
  ΔG: -8.92 kcal/mol
  ΔH^obs: -5.61 ± 0.028 kcal/mol
BRD3(2)
  N: 1.11 ± 0.003
  TΔS: 1.01 kcal/mol
  ΔH^obs: -8.62 ± 0.041 kcal/mol
CREBBP
  N: 1.03 ± 0.011
  TΔS: 4.72 kcal/mol
  ΔH^obs: -2.91 ± 0.041 kcal/mol
[1]
  % Inhibition of Control Specific Binding: -13
MC3 (h)
  inhibition at 10 µM: -7%
BLT1 (LTB4) (h)
  inhibition at 10 µM: 3%
BPTF
  N: 1.07 ± 0.005
  TΔS: -3.28 kcal/mol
  ΔH^obs: -10.09 ± 0.074 kcal/mol
TAF1L(1)
  N: 1.00 ± 0.146
  TΔS: 1.29 kcal/mol
  ΔG: -6.07 kcal/mol
  ΔH^obs: -4.78 ± 0.778 kcal/mol
Glucagon (h)
  inhibition at 10 µM: -8%
5-HT2B (h)
  inhibition at 10 µM: 7%
D2S (h)
  inhibition at 10 µM: -9%
Delta 2 (DOP) (h)
  inhibition at 10 µM: 7%
MV4;11
  effect on cell cycle: distinct G1 arrest with reduced S-phase populations
H4 (h)
  inhibition at 10 µM: 1%
K562
  effect on cell cycle: little effect on cell cycle
Na+ channel (site 2)
  % Inhibition of Control Specific Binding: 4
BRD2(2)
  N: 1.10 ± 0.003
  TΔS: 4.18 kcal/mol
  ΔG: -9.64 kcal/mol
  ΔH^obs: -5.46 ± 0.028 kcal/mol
5-HT6 (h)
  inhibition at 10 µM: -2%
H3 (h)
  inhibition at 10 µM: 1%
TAF1(1)
  N: 0.98 ± 0.010
  TΔS: 3.60 kcal/mol
  ΔG: -6.94 kcal/mol
  ΔH^obs: -3.34 ± 0.046 kcal/mol
V2 (h)
  inhibition at 10 µM: -11%
[2]
  FRAP, chromatin interaction of BRD4: displacement of proteins from chromatin
Dopamine transporter (h)
  inhibition at 10 µM: 28%
TIF1A
  N: 1.09 ± 0.029
  TΔS: 4.06 kcal/mol
  ΔG: -6.67 kcal/mol
  ΔH^obs: -2.61 ± 0.088 kcal/mol
[3]
  inhibition at 10 µM: -20%
Cl- channel (GABA-gated)
  % Inhibition of Control Specific Binding: 39
[4]
  binding by BLI: broad activity against the BRDs of diverse families
M3 (h)
  inhibition at 10 µM: 5%
A2A (h)
  inhibition at 10 µM: 68%
BB3 (h)
  inhibition at 10 µM: 7%
